Results as given in patent US20120148586A1, “GLUCAGON-LIKE PROTEIN-1 RECEPTOR (GLP-1R) AGONISTS FOR TREATING AUTOIMMUNE DISORDERS” (priority 2009, published 2012).

Tests used:
[1] = system: IL-17+ and IFN-γ+ cells (Th17 and Th1); experiment: IL-17+ and IFN-γ+ CD4 cells in inguinal lymph nodes by FACS; format: in vivo, mice; details: inguinal lymph node; exendin-4 1 mg/kg or dexamethasone 4 mg/kg daily; day 5 or 7
thymocytes = experiment: CD4, CD8 double positive thymocytes in naïve and EAE animals (Table 5); format: in vivo, mice; details: exendin-4 1 mg/kg or dexamethasone 4 mg/kg, day 6
Text: EAE was induced in 8 week old C57B1/6 mice by subcutaneous injections of MOG/CFA followed by i.p. injection of pertussis toxin. […] Dexamethasone is known to cause T cell death. On day 6 after immunization, thymi were harvested. Thymocytes were isolated, stained with anti-CD4 and anti-CD8 antibodies and analyzed by flow cytometry.

[2] = system: lymphocytes, monocytes, CD4+, CD8+, CD19+ and Ter119+ cells; experiment: immune cell populations in EAE animals by FACS; format: in vivo, mice; details: spleen, day 5; exendin-4 1 mg/kg or dexamethasone 4 mg/kg daily
glucose and GLP-1 levels = experiment: oral glucose tolerance test; format: in vivo, mice; details: vs methylcellulose
Text: GLP-1 is degraded in vivo by dipeptidyl peptidase-4 (DPP-4). DPP-4 inhibitors include, for example without limitation, sitagliptin, vildagliptin, saxagliptin, linagliptin, dutogliptin, gemigliptin, alogliptin and berberine. To test whether the DPP-4 inhibitor sitagliptin can prevent glucose level increases and elevated GLP-1 levels, four groups of 12 month old male C57BI/6 mice (n=4-5) were fasted overnight and subjected to an oral glucose tolerance test the following morning. One hour prior to oral glucose challenge, test animals were orally dosed with either 1 mg/kg or 10 mg/kg sitagliptin. […] After oral glucose challenge, glucose levels were test at 20, 40, 60 and 120 minutes. Blood samples were also taken at 20 minutes after glucose challenge to check glucose and GLP-1 levels.

[3] = system: EAE in MOG (35-55) immunized C57BL/6 mice; experiment: EAE clinical score (morbidity) after MOG (35-55) immunization; format: in vivo
Method: EAE was induced in female C57BL/6 mice by s.c. injection of 200 μg of the encephalitogenic peptide MOG (35-55) emulsified in CFA (Difco) and supplemented with 4 mg/ml of M. tuberculosis (Difco) on experiment day 0, followed immediately and again after 48 hours by 400 ng of pertussis toxin injected i.v.
Animals were scored for morbidity as follows: 0=normal; 1=limp tail; 2=moderate hind limb weakness; 3=moderately severe hind limb weakness (animal can still walk with difficulty); 4=severe hind limb weakness (animal can move its hind limbs but cannot walk); 5=complete hind limb paralysis; and 6=death.
Another group of mice were treated on a weekly basis with 1mg/kg GAC-1 (n=10). The mice were assessed daily for clinical signs of EAE according to the following scale: 0=normal; 1=limp tail; 2=moderate hind-limb weakness; 3=moderately severe hind-limb weakness (animal can still walk); 4=severe hind-limb weakness (animal can move their hind-limbs but cannot walk); 5=complete hind limb paralysis; 6=death.
In a separate experiment, EAE was induced as described above. […] A second group of animals were treated with 3 mg/kg GAC-1 on day 0 after MOG immunization, followed by weekly treatments of 1 mg/kg GAC-1 starting on day 7 after immunization. A third group of animals were treated daily with PBS (control, n=10). Clinical scores were monitored daily following criteria described above.
(§1) At day 5 after immunization, blood samples were taken for measurement of GLP1 levels. […] To monitor disease progression, animals were scored daily for morbidity as follows: 0=normal; 1=limp tail; 2=moderate hind limb weakness; 3=moderately severe hind limb weakness (animal can still walk with difficulty); 4=severe hind limb weakness (animal can move its hind limbs but cannot walk); 5=complete hind limb paralysis; and 6=death.

GLP-1 levels = experiment: blood GLP1 levels in EAE mice at day 5 after immunization; format: in vivo; details: 10 mg/kg once daily, vs methylcellulose
Text: as §1

| Structure (SMILES) | reduction of IL-17+ cells in EAE animals [1] [%] | % CD4, CD8 double positive cells (thymocytes; EAE mice) [%] | % CD4, CD8 double positive cells (thymocytes; Naïve mice) [%] | reduction of Ter119+ cells in EAE animals [2] | glucose levels after oral glucose challenge (glucose and GLP-1 levels; 1 mg/kg or 10 mg/kg oral, not statistically significant by two-way ANOVA) | blood GLP-1 levels 20 minutes after oral glucose challenge (glucose and GLP-1 levels; either dose (1 mg/kg or 10 mg/kg oral)) | disease score from day 18 to day 20 ([3]; 10 mg/kg once daily, vs methylcellulose) | morbidity (EAE clinical score) ([3]; once daily day 0 to day 28, exendin-4 1 mg/kg, sitagliptin 1 or 10 mg/kg, vs methylcellulose, FIG. 18) | EAE progression / disease symptoms ([3]; once daily day 0 to day 28, exendin-4 1 mg/kg, sitagliptin either 1 mg/kg or 10 mg/kg, FIG. 18) | GLP-1 levels at day 5 after immunization (GLP-1 levels) |
| --- | --- | --- | --- | --- | --- | --- | --- | --- | --- | --- |
| C[C@@H]1C[C@H]2[C@@H]3CCC4=CC(=O)C=C[C@]4(C)[C@@]3(F)[C@@H](O)C[C@]2(C)[C@@]1(O)C(=O)CO [dexamethasone] | 50 | 1.5±0.5 | 12.4±3.3 | 20-25% | – | – | – | – | – | – |
| N[C@@H](CC(=O)N1CCn2c(nnc2C(F)(F)F)C1)Cc1cc(F)c(F)cc1F [sitagliptin] | – | – | – | – | trend toward lower glucose levels | significantly increased blood GLP-1 levels | significantly lower | significantly reduced morbidity | trend towards attenuating disease symptoms | significantly higher GLP-1 levels |
